Assays:
[1] = tested on: LPS-induced acute lung injury mice; assay: LPS-induced acute lung injury; type: in vivo, C57BL/6J mice
Experimental: Male mice C57BL/6J aged 6-8 weeks and weighing 18-22 g were selected for the study. After fixing the mice, 50 μl of PBS was injected into the airways of the mice under direct laryngoscopic vision to form a control group, and 5 mg/kg of LPS (E.coil) was dissolved in 50 μl of PBS and dripped to form a model group. The experiments were divided into […], each having 6 mice, namely, NS group (control group, airway drip of 50 μl PBS), LPS group (model control group, airway drip of 50 μl LPS), LPS+10 mg/kg group (airway drip of 50 μl LPS and given 10 mg/kg TJ01-013 treatment), LPS+20 mg/kg group (airway drip of 50 μl LPS and given 20 mg/kg TJ01-013 treatment), LPS+30 mg/kg group (airway drip of 50 μl LPS and given 30 mg/kg TJ01-013 treatment), LPS+Sivelestat group (Positive control group, airway drip of 50 μl LPS and given 5 mg/kg Sivelestat treatment). All groups were administered […] by intraperitoneal injection in a volume of 200 μl 1 h and 7 h after airway drip, and the mice were euthanized 24 h later, bronchoalveolar lavage fluid (BALF) was taken, and the levels of inflammatory factors in the bronchoalveolar lavage fluid were detected and the changes in the transcriptional levels of tissue-associated inflammatory factors were observed. • (2) taking and observing of Bronchoalveolar lavage fluid (BALF)
Use chloral hydrate intraperitoneal injection to make mice die of rapid overdose anesthesia, place mice in supine position on the dissection table, fix the limbs, disinfect the skin of the neck of the mice with 75% ethanol, incise the skin along the midline of the neck, bluntly separate the subcutaneous connective tissues and muscles with hemostatic forceps, expose the trachea, separate connective tissues on both sides of the trachea and between the trachea and the esophagus, and free the trachea. Two surgical sutures about 20 cm long were threaded between the trachea and esophagus. A 24G intravenous cannula needle was inserted at a 30-degree angle from the connective tissue membrane between the thyroid cartilage and the cricoid cartilage, and the intravenous cannula needle was delivered in the direction of the tracheal eminence. A surgical suture placed between the tracheo-esophageal was ligated at the entry of the cannula into the trachea and at the distal end of the cannula, respectively, and tied as tightly as possible to secure the cannula and trachea. 0.8 ml of PBS was aspirated with a 1 ml syringe, and the syringe was connected to the inlet end of the intravenous cannula needle, and PBS was slowly injected into the trachea, stayed for 30 seconds and then was withdrawn back, and a milky white frothy liquid withdrawn back was visible, and the lavage was repeated three times, and the liquid was centrifuged at 1500 rpm/min for 10 min, and the supernatant was used for cytokine assay, and the cell precipitates were coated after resuspending with PBS for Giemsa staining and sorting and counting.
The levels of inflammatory factors (inflammatory factors including IL-6, CXCL1, CXCL2, etc.) in BALF supernatant were detected according to the instructions of the ELISA test kit.
The obtained cDNA was amplified on a 96-well PCR plate using a LightCycler 480 system, and the gene level was determined by using glyceraldehyde 3-phosphate dehydrogenase (GAPDH) as an internal standard.

tinnitus model mice = assay: Sodium salicylate-induced tinnitus; type: in vivo, C57BL/6 mice; conditions: 8 kHz and 16 kHz noise; 7.5, 15, 30 mg/kg, dose-dependence; vs model group; FIG. 85
Experimental: 7-week-old C57BL/6 male mice without tinnitus were screened for tinnitus-free mice using the acoustic startle (AS) response and gap pre-pulse inhibition of the acoustic startle (GPIAS). The mice were randomly divided into five groups, normal control group (normal, n=10), model control group (Control, n=10), TJ01-013 7.5 mg/kg treatment group (7.5 mg/kg, n=10), TJ01-013 15 mg/kg treatment group (15 mg/kg, n=10), and TJ01-013 30 mg/kg treatment group (30 mg/kg, n=10). Except for the normal control group, all the other groups were injected intraperitoneally with 450 mg/kg sodium salicylate to construct the model, in which the normal control group was injected intraperitoneally with the corresponding volume of saline, and the administration treatment was started on the day of modeling, in which the normal control group and the model control group were administrated vehicle (0.5% CMC-Na) by gavage, and the TJ01-013 treatment group was given the treatment of TJ01-013 with the corresponding concentration of TJ01-013 in a volume of 10 ml/kg, and the acoustic startle was measured again 3 hours after the last dose after 4 consecutive days of administration. Behavioral test, AS response paired with GPLAS response was the behavioral experiment to detect the presence of tinnitus. […] The output of the platform is amplified, sampled, stored in a computer, and analyzed offline. […]

[2] = TJ01-013 10, 20, 30 mg/kg, Sivelestat 5 mg/kg, FIG. 26
[3] = concentration-dependent for TJ01-013, FIG. 27

O=C(O)C[S+]([O-])c1cc(NS(=O)(=O)c2ccc(Br)cc2)c2ccccc2c1O (centres unmarked) [I-1]
number of macrophages in alveolar lavage fluid ([1]; FIG. 25): no significant effect
number of neutrophils in alveolar lavage fluid ([1]; FIG. 25): significantly reduce
total number of cells in alveolar lavage fluid, compared with positive control Sivelestat sodium ([1]; TJ01-013 20 mg/kg, FIG. 25): decreased to a better extent
CXCL1 level in alveolar lavage fluid (ELISA) [1, 2]: significantly decreased in a concentration-dependent manner
CXCL2 level in alveolar lavage fluid (ELISA) [1, 2]: significantly decreased in a concentration-dependent manner
IL-6 level in alveolar lavage fluid (ELISA) [1, 2]: significantly decreased in a concentration-dependent manner
total number of cells in alveolar lavage fluid ([1]; after LPS, intraperitoneal TJ01-013, FIG. 25): decreased
CXCL1 transcript level in lung tissue [1, 3]: significantly decreased
CXCL2 transcript level in lung tissue [1, 3]: significantly decreased
IL-6 transcript level in lung tissue [1, 3]: significantly decreased
AS response amplitude ratios (GPIAS) (tinnitus model mice): decreased significantly

From patent US20260027073A1, “USE OF SMALL-MOLECULE COMPOUND HAVING NAPHTHYLAMINE STRUCTURE” (HANGZHOU PHECDAMED CO., LTD., priority 2023, published 2026)
